From ChEMBL document CHEMBL4118277, “Selective inhibition of monoamine oxidase A by chelerythrine, an isoquinoline alkaloid” (Bioorg Med Chem Lett, 2018)

How the values were obtained:
[1] = biological target: T1, Amine oxidase [flavin-containing] A (Homo sapiens, UniProt P21397); assay: Inhibition of recombinant human MAO-A assessed as residual activity at 20 uM using kynuramine as substrate incubated for 20 mins by spectrophotometric method relative to control; details: read-out: Activity
T1 sequence (P21397 whole entry): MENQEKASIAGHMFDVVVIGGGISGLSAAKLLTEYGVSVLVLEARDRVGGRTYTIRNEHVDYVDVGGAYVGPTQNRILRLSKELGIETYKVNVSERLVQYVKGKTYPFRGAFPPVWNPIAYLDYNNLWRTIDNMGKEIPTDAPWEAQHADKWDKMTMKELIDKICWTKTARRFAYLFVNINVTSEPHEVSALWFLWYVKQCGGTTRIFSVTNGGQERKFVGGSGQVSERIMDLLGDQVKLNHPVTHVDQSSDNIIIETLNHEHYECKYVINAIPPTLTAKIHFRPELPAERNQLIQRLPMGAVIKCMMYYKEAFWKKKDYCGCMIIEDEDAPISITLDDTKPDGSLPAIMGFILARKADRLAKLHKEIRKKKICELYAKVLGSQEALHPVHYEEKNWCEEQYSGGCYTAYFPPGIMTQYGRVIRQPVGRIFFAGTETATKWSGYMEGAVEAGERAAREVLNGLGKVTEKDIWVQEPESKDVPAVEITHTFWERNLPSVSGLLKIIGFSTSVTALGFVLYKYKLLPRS

[2] = biological target: T2, Amine oxidase [flavin-containing] B (Homo sapiens, UniProt P27338); assay: Inhibition of recombinant human MAO-B assessed as residual activity at 20 uM using benzylamine as substrate incubated for 30 mins by spectrophotometric method relative to control; details: 0.5 h, read-out: Activity
T2 sequence (P27338 whole entry): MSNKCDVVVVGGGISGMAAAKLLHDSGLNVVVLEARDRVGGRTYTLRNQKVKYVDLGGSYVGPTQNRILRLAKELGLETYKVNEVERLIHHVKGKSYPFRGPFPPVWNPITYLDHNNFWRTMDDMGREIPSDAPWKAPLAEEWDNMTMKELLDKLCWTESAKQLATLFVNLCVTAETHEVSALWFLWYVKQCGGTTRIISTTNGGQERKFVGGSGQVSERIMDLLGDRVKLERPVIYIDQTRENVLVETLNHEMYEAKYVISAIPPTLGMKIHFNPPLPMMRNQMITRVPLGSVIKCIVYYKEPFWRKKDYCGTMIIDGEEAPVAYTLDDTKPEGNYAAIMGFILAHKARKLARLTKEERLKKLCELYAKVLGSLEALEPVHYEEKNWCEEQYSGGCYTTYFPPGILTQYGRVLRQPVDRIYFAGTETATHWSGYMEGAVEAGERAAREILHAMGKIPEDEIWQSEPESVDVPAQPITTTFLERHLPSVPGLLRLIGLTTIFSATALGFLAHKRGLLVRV

[3] = biological target: T1, Amine oxidase [flavin-containing] A; assay: Inhibition of recombinant human MAO-A using kynuramine as substrate incubated for 20 mins by spectrophotometric method
[4] = biological target: T2, Amine oxidase [flavin-containing] B; assay: Inhibition of recombinant human MAO-B using benzylamine as substrate incubated for 30 mins by spectrophotometric method
[5] = biological target: T1, Amine oxidase [flavin-containing] A; assay: Inhibition of recombinant human MAO-A assessed as residual activity at 1.1 uM using kynuramine as substrate after 30 mins by spectrophotometric method relative to control; details: 0.5 h, read-out: Activity
[6] = biological target: T1, Amine oxidase [flavin-containing] A; assay: Reversible inhibition of recombinant human MAO-A assessed as residual activity at 1.1 uM using kynuramine as substrate preincubated for 30 mins followed by dialysis for 6 hrs by spectrophotometric method relative to control; details: read-out: Activity
[7] = biological target: T1, Amine oxidase [flavin-containing] A; assay: Inhibition of recombinant human MAO-A expressed in baculovirus infected insect cells using aminoproplyether of luciferin methyl ester as substrate after 90 mins by chemiluminescence assay
Homo sapiens = species: Homo sapiens; assay: Selectivity index, ratio of IC50 for recombinant human MAO-B to IC50 for recombinant human MAO-A
[8] = biological target: T1, Amine oxidase [flavin-containing] A; assay: Inhibition of recombinant human MAO-A using kynuramine as substrate by spectrophotometric method; details: TDE = time-dependent effect
[9] = biological target: T1, Amine oxidase [flavin-containing] A; assay: Competitive inhibition of recombinant human MAO-A using kynuramine as substrate by Lineweaver-Burk plot analysis

SMILES | activity at 20 µM [1] [%] | activity at 20 µM [2] [%] | IC50 [3] [µM] | IC50 [4] [µM] | further results
COc1cc2c(cc1OC)-c1c(OC)c(OC)cc3ccnc(c13)C2=O [OXOGLAUCINE] | 89.7 | 64.9 | > 20 | > 20 | –
Cc1cccc(N2CC(CO)OC2=O)c1 (stereo unspecified) [TOLOXATONE] | – | – | – | – | activity at 1.1 µM [5]: 30.7%; activity at 1.1 µM [6]: 75.4%
COc1cc(-c2[o+]c3cc(O)cc(O)c3cc2O)cc(OC)c1O [MALVIDIN CHLORIDE] | – | – | – | – | IC50 [7]: 22.1 µM
O=C1/C(=C/c2ccc(O)cc2)Oc2cc(O)ccc21 | – | – | – | – | Ratio IC50 (Homo sapiens): 9.4
COc1cc2c(cc1O)[C@H]1Cc3ccc(OC)c(OC)c3CN1CC2 | 93.4 | 91.4 | > 20 | > 20 | –
COc1cc2c(cc1OC)[C@@H]1Cc3ccc(O)c(OC)c3CN1CC2 | 85.6 | 92.8 | > 20 | > 20 | –
CN1Cc2c(ccc3c2OCO3)[C@@]2(C)[C@@H](O)Cc3cc4c(cc3[C@@H]12)OCO4 | 87.9 | 87.6 | > 20 | > 20 | –
C#CCN(C)CCCOc1ccc(Cl)cc1Cl [CLORGILINE] | – | – | – | – | activity at 1.1 µM [5]: 17.3%; activity at 1.1 µM [6]: 18.3%
COc1ccc(-c2cc(=O)c3c(O)cc(O)cc3o2)cc1 | – | – | – | – | Ratio IC50 (Homo sapiens): 0.89
COc1ccc2c(c[n+](C)c3c4cc5c(cc4ccc23)OCO5)c1OC [CHELERYTHRINE] | 28.3 | 94.3 | 0.55 | > 20 | Ratio IC50 (Homo sapiens): > 36.4; inhibition (INH) [8]: Tde; activity at 1.1 µM [5]: 28.5%; activity at 1.1 µM [6]: 75%; Ki [9]: 0.22 µM
COc1cc2c(cc1OC)[C@@H]1[C@H](C)c3ccc(OC)c(OC)c3CN1CC2 | 79.5 | 54.7 | > 20 | 24.1 | –
